Measurements taken from publication PMC11129975, “A first-in-human phase I study of TAS-117, an allosteric AKT inhibitor, in patients with advanced solid tumors” (Cancer Chemotherapy and Pharmacology, 2024).

Assay: Phase I safety: adverse events, adverse drug reactions, DLTs in patients with advanced solid tumors
Assay type: in vivo, human
Source text: This was a phase I, open-label, non-randomized, dose-escalating first-in-human study to evaluate the safety, pharmacokinetics, antitumor activity, pharmacodynamics, and pharmacogenomics of TAS-117 in patients with advanced solid tumors. The study had three phases: a dose escalation phase (DEP), a regimen modification phase (RMP), and a safety assessment phase (SAP). The treatment cycle on each regimen lasted 21 days. The DEP used an accelerated titration and 3 + 3 design. TAS-117 was administered orally once daily (QD) on an empty stomach (1 h before or 2 h after a meal). Dosing was determined based on a 4-week repeated oral-dose toxicology study in monkeys (data on file, Taiho Pharmaceutical Co., Ltd.); the highest non-severely toxic dose was 1.2 mg/kg/day, which was converted to 3.84 mg/body/day, or 2.4 mg/m^2. Therefore, the starting dose was determined to be ≤ 2.4 mg/m^2. At dose level 1, TAS-117 was administered at 2 mg QD (Day − 2), and the dose was increased to 4 mg QD after 2 days (Day 1). The RMP was conducted according to a 3 + 3 design. During this phase, the dose regimen was changed from QD administration to intermittent dosing of daily TAS-117 with 4 days on/3 days off. TAS-117 was administered on an empty stomach. Dose-limiting toxicities (DLTs) were evaluated in Cycle 1 of the DEP and RMP. […] The RD and regimen for the SAP were determined based on the safety, pharmacokinetics, pharmacodynamics, and antitumor activity profile determined in the DEP and RMP. During the SAP, the safety and preliminary efficacy profiles of TAS-117 were assessed at the RD and recommended regimen. Three cohorts were included in this assessment. Cohort 1 included patients with endometrial cancer with a PIK3CA mutation; cohort 2 included patients with endometrial cancer with an AKT1 mutation, AKT1 amplification, or AKT2 amplification; and cohort 3 included patients with ovarian clear cell carcinoma.
The primary endpoints were the proportion of patients who experienced DLTs in Cycle 1 of the DEP and RMP and the incidence of adverse events (AEs) and adverse drug reactions (ADRs) in the SAP. AEs and ADRs were coded using the Medical Dictionary for Regulatory Activities (MedDRA; version 24.1) and graded according to the National Cancer Institute Common Terminology Criteria for Adverse Events (CTCAE; version 4.03). Secondary endpoints were pharmacokinetic findings, changes in the ratio of phosphorylated PRAS40 (pPRAS40)/total PRAS40 from baseline, efficacy, and pharmacogenomics findings.

## C[C@]1(O)C[C@@](N)(c2ccc(-c3nc4n(c3-c3ccccc3)COc3ccncc3-4)cc2)C1 [TAS-117]
DEP dose level 4 (24 mg QD)
  Grade 2 maculopapular rash requiring study interruption: All patients
DEP n = 12, All grade
  Adverse drug reactions: ALT increased: 1 (8.3) n (%)
  Adverse drug reactions: AST increased: 1 (8.3) n (%)
  Adverse drug reactions: Any events: 11 (91.7) n (%)
  Adverse drug reactions: Blood AP increased: 1 (8.3) n (%)
  Adverse drug reactions: Decreased appetite: 2 (16.7) n (%)
  Adverse drug reactions: Diarrhea: 1 (8.3) n (%)
  Adverse drug reactions: Dry skin: 0 (0.0) n (%)
  Adverse drug reactions: GGT increased: 1 (8.3) n (%)
  Adverse drug reactions: GI disorders: 4 (33.3) n (%)
  Adverse drug reactions: General disorders and administration site conditions: 2 (16.7) n (%)
  Adverse drug reactions: Hyperglycemia: 4 (33.3) n (%)
  Adverse drug reactions: Investigations: 5 (41.7) n (%)
  Adverse drug reactions: Metabolism and nutrition disorders: 5 (41.7) n (%)
  Adverse drug reactions: Nausea: 1 (8.3) n (%)
  Adverse drug reactions: Neutrophil count decreased: 3 (25.0) n (%)
  Adverse drug reactions: Pruritus: 1 (8.3) n (%)
  Adverse drug reactions: Pyrexia: 1 (8.3) n (%)
  Adverse drug reactions: Rash maculo-papular: 9 (75.0) n (%)
  Adverse drug reactions: Skin and SC tissue disorders: 11 (91.7) n (%)
  Adverse drug reactions: Stomatitis: 3 (25.0) n (%)
  Adverse drug reactions: Vomiting: 2 (16.7) n (%)
  Adverse drug reactions: WBC count decreased: 3 (25.0) n (%)
  Adverse events: ALT increased: 3 (25.0) n (%)
  Adverse events: AST increased: 3 (25.0) n (%)
  Adverse events: Any events: 11 (91.7) n (%)
  Adverse events: Blood AP increased: 2 (16.7) n (%)
  Adverse events: Decreased appetite: 5 (41.7) n (%)
  Adverse events: Diarrhea: 3 (25.0) n (%)
  Adverse events: Dry skin: 0 (0.0) n (%)
  Adverse events: GGT increased: 2 (16.7) n (%)
  Adverse events: GI disorders: 7 (58.3) n (%)
  Adverse events: General disorders and administration site conditions: 5 (41.7) n (%)
  Adverse events: Hyperglycemia: 4 (33.3) n (%)
  Adverse events: Investigations: 6 (50.0) n (%)
  Adverse events: Metabolism and nutrition disorders: 9 (75.0) n (%)
  Adverse events: Nausea: 2 (16.7) n (%)
  Adverse events: Neutrophil count decreased: 3 (25.0) n (%)
  Adverse events: Pruritus: 1 (8.3) n (%)
  Adverse events: Pyrexia: 1 (8.3) n (%)
  Adverse events: Rash maculo-papular: 9 (75.0) n (%)
  Adverse events: Skin and SC tissue disorders: 11 (91.7) n (%)
  Adverse events: Stomatitis: 3 (25.0) n (%)
  Adverse events: Vomiting: 3 (25.0) n (%)
  Adverse events: WBC count decreased: 3 (25.0) n (%)
DEP n = 12, ≥ Grade 3
  Adverse drug reactions: ALT increased: 0 (0.0) n (%)
  Adverse drug reactions: AST increased: 0 (0.0) n (%)
  Adverse drug reactions: Any events: 3 (25.0) n (%)
  Adverse drug reactions: Blood AP increased: 0 (0.0) n (%)
  Adverse drug reactions: Decreased appetite: 0 (0.0) n (%)
  Adverse drug reactions: Diarrhea: 0 (0.0) n (%)
  Adverse drug reactions: Dry skin: 0 (0.0) n (%)
  Adverse drug reactions: GGT increased: 0 (0.0) n (%)
  Adverse drug reactions: GI disorders: 0 (0.0) n (%)
  Adverse drug reactions: General disorders and administration site conditions: 0 (0.0) n (%)
  Adverse drug reactions: Hyperglycemia: 2 (16.7) n (%)
  Adverse drug reactions: Investigations: 1 (8.3) n (%)
  Adverse drug reactions: Metabolism and nutrition disorders: 2 (16.7) n (%)
  Adverse drug reactions: Nausea: 0 (0.0) n (%)
  Adverse drug reactions: Neutrophil count decreased: 0 (0.0) n (%)
  Adverse drug reactions: Pruritus: 0 (0.0) n (%)
  Adverse drug reactions: Pyrexia: 0 (0.0) n (%)
  Adverse drug reactions: Rash maculo-papular: 0 (0.0) n (%)
  Adverse drug reactions: Skin and SC tissue disorders: 0 (0.0) n (%)
  Adverse drug reactions: Stomatitis: 0 (0.0) n (%)
  Adverse drug reactions: Vomiting: 0 (0.0) n (%)
  Adverse drug reactions: WBC count decreased: 1 (8.3) n (%)
  Adverse events: ALT increased: 0 (0.0) n (%)
  Adverse events: AST increased: 1 (8.3) n (%)
  Adverse events: Any events: 3 (25.0) n (%)
  Adverse events: Blood AP increased: 1 (8.3) n (%)
  Adverse events: Decreased appetite: 0 (0.0) n (%)
  Adverse events: Diarrhea: 0 (0.0) n (%)
  Adverse events: Dry skin: 0 (0.0) n (%)
  Adverse events: GGT increased: 1 (8.3) n (%)
  Adverse events: GI disorders: 0 (0.0) n (%)
  Adverse events: General disorders and administration site conditions: 0 (0.0) n (%)
  Adverse events: Hyperglycemia: 2 (16.7) n (%)
  Adverse events: Investigations: 3 (25.0) n (%)
  Adverse events: Metabolism and nutrition disorders: 2 (16.7) n (%)
  Adverse events: Nausea: 0 (0.0) n (%)
  Adverse events: Neutrophil count decreased: 0 (0.0) n (%)
  Adverse events: Pruritus: 0 (0.0) n (%)
  Adverse events: Pyrexia: 0 (0.0) n (%)
  Adverse events: Rash maculo-papular: 0 (0.0) n (%)
  Adverse events: Skin and SC tissue disorders: 0 (0.0) n (%)
  Adverse events: Stomatitis: 0 (0.0) n (%)
  Adverse events: Vomiting: 0 (0.0) n (%)
  Adverse events: WBC count decreased: 1 (8.3) n (%)
QD dosing, patients with advanced or metastatic solid tumors
  Recommended dose (RD): 16 mg
RMP dose level 4 (24 mg), intermittent administration
  DLTs: No DLTs
RMP dose level 5 (32 mg), Cycle 1 and Cycle 2
  Grade 3 maculopapular rash with treatment interruption and/or dose reduction: two of three patients
RMP dose level 5 (32 mg), intermittent administration
  DLT (grade 3 maculopapular rash) during Cycle 1: one of the three patients
RMP n = 10, All grade
  Adverse drug reactions: ALT increased: 0 (0.0) n (%)
  Adverse drug reactions: AST increased: 1 (10.0) n (%)
  Adverse drug reactions: Any events: 10 (100.0) n (%)
  Adverse drug reactions: Blood AP increased: 1 (10.0) n (%)
  Adverse drug reactions: Decreased appetite: 5 (50.0) n (%)
  Adverse drug reactions: Diarrhea: 2 (20.0) n (%)
  Adverse drug reactions: Dry skin: 1 (10.0) n (%)
  Adverse drug reactions: GGT increased: 2 (20.0) n (%)
  Adverse drug reactions: GI disorders: 8 (80.0) n (%)
  Adverse drug reactions: General disorders and administration site conditions: 5 (50.0) n (%)
  Adverse drug reactions: Hyperglycemia: 3 (30.0) n (%)
  Adverse drug reactions: Investigations: 6 (60.0) n (%)
  Adverse drug reactions: Metabolism and nutrition disorders: 5 (50.0) n (%)
  Adverse drug reactions: Nausea: 3 (30.0) n (%)
  Adverse drug reactions: Neutrophil count decreased: 3 (30.0) n (%)
  Adverse drug reactions: Pruritus: 4 (40.0) n (%)
  Adverse drug reactions: Pyrexia: 4 (40.0) n (%)
  Adverse drug reactions: Rash maculo-papular: 9 (90.0) n (%)
  Adverse drug reactions: Skin and SC tissue disorders: 9 (90.0) n (%)
  Adverse drug reactions: Stomatitis: 8 (80.0) n (%)
  Adverse drug reactions: Vomiting: 1 (10.0) n (%)
  Adverse drug reactions: WBC count decreased: 3 (30.0) n (%)
  Adverse events: ALT increased: 1 (10.0) n (%)
  Adverse events: AST increased: 2 (20.0) n (%)
  Adverse events: Any events: 10 (100.0) n (%)
  Adverse events: Blood AP increased: 1 (10.0) n (%)
  Adverse events: Decreased appetite: 7 (70.0) n (%)
  Adverse events: Diarrhea: 3 (30.0) n (%)
  Adverse events: Dry skin: 1 (10.0) n (%)
  Adverse events: GGT increased: 2 (20.0) n (%)
  Adverse events: GI disorders: 9 (90.0) n (%)
  Adverse events: General disorders and administration site conditions: 9 (90.0) n (%)
  Adverse events: Hyperglycemia: 3 (30.0) n (%)
  Adverse events: Investigations: 7 (70.0) n (%)
  Adverse events: Metabolism and nutrition disorders: 7 (70.0) n (%)
  Adverse events: Nausea: 4 (40.0) n (%)
  Adverse events: Neutrophil count decreased: 3 (30.0) n (%)
  Adverse events: Pruritus: 4 (40.0) n (%)
  Adverse events: Pyrexia: 6 (60.0) n (%)
  Adverse events: Rash maculo-papular: 9 (90.0) n (%)
  Adverse events: Skin and SC tissue disorders: 9 (90.0) n (%)
  Adverse events: Stomatitis: 8 (80.0) n (%)
  Adverse events: Vomiting: 2 (20.0) n (%)
  Adverse events: WBC count decreased: 3 (30.0) n (%)
RMP n = 10, ≥ Grade 3
  Adverse drug reactions: ALT increased: 0 (0.0) n (%)
  Adverse drug reactions: AST increased: 0 (0.0) n (%)
  Adverse drug reactions: Any events: 6 (60.0) n (%)
  Adverse drug reactions: Blood AP increased: 0 (0.0) n (%)
  Adverse drug reactions: Decreased appetite: 0 (0.0) n (%)
  Adverse drug reactions: Diarrhea: 0 (0.0) n (%)
  Adverse drug reactions: Dry skin: 0 (0.0) n (%)
  Adverse drug reactions: GGT increased: 1 (10.0) n (%)
  Adverse drug reactions: GI disorders: 0 (0.0) n (%)
  Adverse drug reactions: General disorders and administration site conditions: 0 (0.0) n (%)
  Adverse drug reactions: Hyperglycemia: 2 (20.0) n (%)
  Adverse drug reactions: Investigations: 3 (30.0) n (%)
  Adverse drug reactions: Metabolism and nutrition disorders: 2 (20.0) n (%)
  Adverse drug reactions: Nausea: 0 (0.0) n (%)
  Adverse drug reactions: Neutrophil count decreased: 0 (0.0) n (%)
  Adverse drug reactions: Pruritus: 0 (0.0) n (%)
  Adverse drug reactions: Pyrexia: 0 (0.0) n (%)
  Adverse drug reactions: Rash maculo-papular: 3 (30.0) n (%)
  Adverse drug reactions: Skin and SC tissue disorders: 3 (30.0) n (%)
  Adverse drug reactions: Stomatitis: 0 (0.0) n (%)
  Adverse drug reactions: Vomiting: 0 (0.0) n (%)
  Adverse drug reactions: WBC count decreased: 2 (20.0) n (%)
  Adverse events: ALT increased: 0 (0.0) n (%)
  Adverse events: AST increased: 0 (0.0) n (%)
  Adverse events: Any events: 7 (70.0) n (%)
  Adverse events: Blood AP increased: 0 (0.0) n (%)
  Adverse events: Decreased appetite: 0 (0.0) n (%)
  Adverse events: Diarrhea: 1 (10.0) n (%)
  Adverse events: Dry skin: 0 (0.0) n (%)
  Adverse events: GGT increased: 1 (10.0) n (%)
  Adverse events: GI disorders: 2 (20.0) n (%)
  Adverse events: General disorders and administration site conditions: 0 (0.0) n (%)
  Adverse events: Hyperglycemia: 2 (20.0) n (%)
  Adverse events: Investigations: 3 (30.0) n (%)
  Adverse events: Metabolism and nutrition disorders: 2 (20.0) n (%)
  Adverse events: Nausea: 0 (0.0) n (%)
  Adverse events: Neutrophil count decreased: 0 (0.0) n (%)
  Adverse events: Pruritus: 0 (0.0) n (%)
  Adverse events: Pyrexia: 0 (0.0) n (%)
  Adverse events: Rash maculo-papular: 3 (30.0) n (%)
  Adverse events: Skin and SC tissue disorders: 3 (30.0) n (%)
  Adverse events: Stomatitis: 0 (0.0) n (%)
  Adverse events: Vomiting: 0 (0.0) n (%)
  Adverse events: WBC count decreased: 2 (20.0) n (%)
SAP n = 43, All grade
  Adverse drug reactions: ALT increased: 6 (14.0) n (%)
